Laboratory results as given in patent US8815909B2, “Diaminocyclohexane compounds and uses thereof” (Bristol-Myers Squibb Company, priority 2011, dated 2014).
pEC50: −log10 of the molar value.

What follows are molecules tested against T1, human Y4 receptor (Homo sapiens, UniProt P50391) (assay: NPY4 cAMP HTRF Agonist Assay (inhibitory cAMP assay, Gi activation by Y4 agonism)). Details: TABLE 2, R2 is Phenyl-CN; read-out: hY4 CAMP EC50.
T1 construct: expressed in transfected cells
Assay type: cell-based
Outline: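 Y4 agonism read as lowered forskolin-stimulated cAMP (HTRF, 1 h detection at room temperature). Stable human Y4 CHO clone, 5000 cells/well, incubated 30 min at room temperature with compounds plus forskolin and IBMX in PBS.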

T1 sequence (P50391 whole entry): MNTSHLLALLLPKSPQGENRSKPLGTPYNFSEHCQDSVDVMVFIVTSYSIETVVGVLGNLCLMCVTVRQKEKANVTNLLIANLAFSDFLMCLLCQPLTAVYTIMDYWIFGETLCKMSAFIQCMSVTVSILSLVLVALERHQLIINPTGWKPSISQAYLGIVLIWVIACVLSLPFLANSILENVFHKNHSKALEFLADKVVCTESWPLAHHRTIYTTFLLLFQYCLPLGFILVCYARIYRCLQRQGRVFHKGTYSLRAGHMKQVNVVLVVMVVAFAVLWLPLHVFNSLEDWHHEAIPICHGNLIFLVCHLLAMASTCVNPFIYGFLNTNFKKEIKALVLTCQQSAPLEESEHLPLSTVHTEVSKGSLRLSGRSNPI

| SMILES | pEC50 |
| --- | --- |
| C[C@]1(N[C@@H]2CCCC[C@H]2Nc2ncc(-c3cccc(C(N)=O)c3)o2)CCCN(c2ccc(C#N)cc2)C1 [Example 199] | 8.70 |
| COC(=O)Nc1cccc(-c2ccnc(N[C@@H]3CCCC[C@H]3N[C@H]3CCCN(c4ccc(C#N)cc4)C3)c2)c1 [Example 200] | 8.52 |
| COC(=O)Nc1cccc(-c2ccnc(N[C@@H]3CCCC[C@H]3N[C@H]3CCCN(c4ccc(C#N)cc4)C3)c2)c1 [Example 201] | 8.30 |
| N#Cc1ccc(N2CCC[C@H](N[C@@H]3CCCC[C@H]3Nc3cn(-c4ccc(OC(F)(F)F)cc4)nn3)C2)cc1 [Example 202] | 6.11 |
| COC(=O)c1ccccc1-c1ccnc(N[C@@H]2CCCC[C@H]2N[C@H]2CCCN(c3ccc(C#N)cc3)C2)c1 [Example 203] | 6.68 |
| COC(=O)c1cccn1-c1ccnc(N[C@@H]2CCCC[C@H]2N[C@H]2CCCN(c3ccc(C#N)cc3)C2)c1 [Example 204] | 6.83 |
| CCOC(=O)Nc1cccc(-c2cnc(N[C@@H]3CCCC[C@H]3N[C@H]3CCCN(c4ccc(C#N)cc4)C3)o2)c1 [Example 205] | 9.70 |
| N#Cc1ccc(N2CCC[C@H](N[C@@H]3CCCC[C@H]3Nc3cc(-n4ccc(C(F)(F)F)n4)ccn3)C2)cc1 [Example 206] | 6.36 |
| CC(C)(O)c1cccc(-c2cnc(N[C@@H]3CCCC[C@H]3N[C@H]3CCCN(c4ccc(C#N)cc4)C3)o2)c1 [Example 207] | 7.41 |
| N#Cc1ccc(N2CCC[C@H](N[C@@H]3CCCC[C@H]3Nc3cc(-n4cncn4)ccn3)C2)cc1 [Example 208] | 6.64 |
| N#Cc1ccc(N2CCC[C@H](N[C@@H]3CCCC[C@H]3Nc3cc(-c4cccc5cn[nH]c45)ccn3)C2)cc1 [Example 209] | 7.08 |
| N#Cc1ccc(N2CCC[C@H](N[C@@H]3CCCC[C@H]3Nc3cc(-c4ccc5[nH]ncc5c4)ccn3)C2)cc1 [Example 210] | 6.19 |
| N#Cc1ccc(N2CCC[C@H](N[C@@H]3CCCC[C@H]3Nc3cc(-c4cccc5[nH]ncc45)ccn3)C2)cc1 [Example 211] | 7.66 |
| N#Cc1ccc(N2CCC[C@H](N[C@@H]3CCCC[C@H]3Nc3cc(-c4cccc5c4CC(=O)N5)ccn3)C2)cc1 [Example 212] | 7.89 |
| N#Cc1ccc(N2CCC[C@H](N[C@@H]3CCCC[C@H]3Nc3cc(-c4cccc5c4NC(=O)C5)ccn3)C2)cc1 [Example 213] | 6.74 |
| N#Cc1ccc(N2CCC[C@H](N[C@@H]3CCCC[C@H]3Nc3cc(Cc4ccn[nH]4)ccn3)C2)cc1 [Example 214] | 6.02 |
| N#Cc1ccc(N2CCC[C@H](N[C@@H]3CCCC[C@H]3Nc3cc(-c4ccc5cn[nH]c5c4)ccn3)C2)cc1 [Example 215] | 6.67 |
| N#Cc1ccc(N2CCC[C@H](N[C@@H]3CCCC[C@H]3Nc3cc(-c4cncc5ccccc45)ccn3)C2)cc1 [Example 216] | 6.72 |
| N#Cc1ccc(N2CCC[C@H](N[C@@H]3CCCC[C@H]3Nc3cc(-c4cnc5ccccc5c4)ccn3)C2)cc1 [Example 217] | 6.32 |
| N#Cc1ccc(N2CCC[C@H](N[C@@H]3CCCC[C@H]3Nc3cc(-c4ccc(CO)cc4)ccn3)C2)cc1 [Example 218] | 6.52 |
| COc1ccc(-c2ccnc(N[C@@H]3CCCC[C@H]3N[C@H]3CCCN(c4ccc(C#N)cc4)C3)c2)cc1 [Example 219] | 7.35 |
| N#Cc1ccc(N2CCC[C@H](N[C@@H]3CCCC[C@H]3Nc3cc(-c4ccc5nccnc5c4)ccn3)C2)cc1 [Example 221] | 7.11 |
| COc1ccc(-c2ccnc(N[C@@H]3CCCC[C@H]3N[C@H]3CCCN(c4ccc(C#N)cc4)C3)c2)cn1 [Example 222] | 7.34 |
| N#Cc1ccc(N2C[C@@H]3C[C@H](N[C@@H]4CCCC[C@H]4Nc4ncc(-c5ccccc5F)o4)[C@H]2C3)cc1 [Example 223] | 8.30 |
| N#Cc1ccc(N2C[C@@H]3C[C@H](N[C@@H]4CCCC[C@H]4Nc4ncc(-c5ccccc5OC(F)(F)F)o4)[C@H]2C3)cc1 [Example 224] | 8.70 |

Further lines, results first:

| pEC50 | SMILES |
| --- | --- |
| 7.27 | N#Cc1ccc(N2C[C@@H]3C[C@H](N[C@@H]4CCCC[C@H]4Nc4ncc(-c5ccc(O)cc5)o4)[C@H]2C3)cc1 [Example 225] |
| 8.30 | N#Cc1ccc(N2CCC[C@H](N[C@@H]3CCCC[C@H]3Nc3ncc(-c4ccccc4OC(F)(F)F)o3)C2)cc1 [Example 226] |
| 7.80 | N#Cc1ccc(N2C[C@@H]3C[C@H](N[C@@H]4CCCC[C@H]4Nc4cc(-c5ccc(OC(F)F)cc5)ccn4)[C@H]2C3)cc1 [Example 227] |
| 9.00 | N#Cc1ccc(N2C[C@@H]3C[C@H](N[C@@H]4CCCC[C@H]4Nc4cc(-c5cccc(O)c5)ccn4)[C@H]2C3)cc1 [Example 228] |
| 8.52 | N#Cc1ccc(N2CC3CC2[C@@H](N[C@@H]2CCCC[C@H]2Nc2ncc(-c4ccc(OC(F)F)cc4)o2)C3)cc1 (some centres unmarked) [Example 229] |
| 6.42 | N#Cc1ccc(N2CCC[C@H](N[C@@H]3CCCC[C@H]3NC3=NOC(c4ccccc4)C3)C2)cc1 (some centres unmarked) [Example 230] |
| 8.10 | N#Cc1ccc(N2C[C@@H]3C[C@H](N[C@@H]4CCCC[C@H]4Nc4cc(-c5cccc(C(N)=O)c5)ccn4)[C@H]2C3)cc1 [Example 231] |
| 7.43 | N#Cc1ccc(N2C[C@@H]3C[C@H](N[C@@H]4CCCC[C@H]4Nc4cc(-c5ccccc5)ccn4)[C@H]2C3)cc1 [Example 232] |
| 6.71 | N#Cc1ccc(N2C[C@@H]3C[C@H](N[C@@H]4CCCC[C@H]4Nc4cc(Br)ccn4)[C@H]2C3)cc1 [Example 233] |
| 6.52 | C=C(C)c1ccnc(N[C@@H]2CCCC[C@H]2N[C@H]2CCCN(c3ccc(C#N)cc3)C2)c1 [Example 234] |
| 7.40 | N#Cc1ccc(N2CCC[C@H](N[C@@H]3CCCC[C@H]3Nc3cc(-c4cccc(S(N)(=O)=O)c4)ccn3)C2)cc1 [Example 236] |
| 8.05 | N#Cc1ccc(N2CCC[C@H](N[C@@H]3CCCC[C@H]3Nc3cc(-c4cccc(N)n4)ccn3)C2)cc1 [Example 237] |
| 6.57 | N#Cc1ccc(N2C[C@@H]3C[C@H](N[C@@H]4CCCC[C@H]4Nc4ncc(-c5ccc(C(N)=O)cc5)o4)[C@H]2C3)cc1 [Example 238] |
| 6.54 | N#Cc1ccc(N2CCC[C@H](N[C@@H]3CCCC[C@H]3Nc3cc(-c4ccc(N)cc4)ccn3)C2)cc1 [Example 239] |
| 7.14 | CN(C)c1cccc(-c2ccnc(N[C@@H]3CCCC[C@H]3N[C@H]3CCCN(c4ccc(C#N)cc4)C3)c2)c1 [Example 240] |
| 6.54 | N#Cc1ccc(N2CCC[C@H](N[C@@H]3CCCC[C@H]3Nc3cc(-c4ccccc4OC(F)(F)F)ccn3)C2)cc1 [Example 241] |
| 8.52 | CS(=O)(=O)Nc1cccc(-c2ccnc(N[C@@H]3CCCC[C@H]3N[C@H]3CCCN(c4ccc(C#N)cc4)C3)c2)c1 [Example 242] |
| 6.22 | CS(=O)(=O)NCc1ccc(-c2ccnc(N[C@@H]3CCCC[C@H]3N[C@H]3CCCN(c4ccc(C#N)cc4)C3)c2)cc1 [Example 243] |
| 8.15 | CC(=O)NCc1cccc(-c2ccnc(N[C@@H]3CCCC[C@H]3N[C@H]3CCCN(c4ccc(C#N)cc4)C3)c2)c1 [Example 244] |
| 6.52 | N#Cc1ccc(N2CCC[C@H](N[C@@H]3CCCC[C@H]3Nc3cc(Cc4ccccc4)ccn3)C2)cc1 [Example 245] |
| 6.42 | C=Cc1ccnc(N[C@@H]2CCCC[C@H]2N[C@H]2CCCN(c3ccc(C#N)cc3)C2)c1 [Example 246] |

Same assay, conditions: second TABLE 1, R2 is Phenyl-CF3; read-out: hY4 CAMP EC50

| pEC50 | SMILES |
| --- | --- |
| 6.82 | FC(F)(F)c1ccc(N2CCC[C@H](N[C@@H]3CCCC[C@H]3Nc3cc(-c4cccc(C5CCCN5)c4)ccn3)C2)cc1 (some centres unmarked) [Example 183] |
| 6.12 | CCOC(=O)c1cnc(N[C@@H]2CCCC[C@H]2N[C@H]2CCCN(c3ccc(C(F)(F)F)cc3)C2)o1 [Example 184, ethyl 2-(((1R,2R)-2-(((S)-1-(4-(trifluoromethyl)phenyl)piperidin-3-yl)amino)cyclohexyl)amino)oxazole-5-carboxylate] |
| 6.66 | CCCC#Cc1ccnc(N[C@@H]2CCCC[C@H]2N[C@H]2CCCN(c3ccc(C(F)(F)F)cc3)C2)c1 [Example 185] |
| 6.94 | OCCCCCc1ccnc(N[C@@H]2CCCC[C@H]2N[C@H]2CCCN(c3ccc(C(F)(F)F)cc3)C2)c1 [Example 186] |
| 7.38 | OCCCCc1ccnc(N[C@@H]2CCCC[C@H]2N[C@H]2CCCN(c3ccc(C(F)(F)F)cc3)C2)c1 [Example 187] |
| 5.98 | Cn1cc(-c2ccnc(N[C@@H]3CCCC[C@H]3N[C@H]3CCCN(c4ccc(C(F)(F)F)cc4)C3)c2)cn1 [Example 188] |
| 7.57 | CC(C)(O)Cc1cccc(-c2ccnc(N[C@@H]3CCCC[C@H]3N[C@H]3CCCN(c4ccc(C(F)(F)F)cc4)C3)c2)c1 [Example 189] |
| 7.29 | FC(F)(F)c1ccc(N2CCC[C@H](N[C@@H]3CCCC[C@H]3Nc3cc(-n4cccc4)ccn3)C2)cc1 [Example 190] |
| 7.32 | FC(F)(F)c1ccc(N2CCC[C@H](N[C@@H]3CCCC[C@H]3Nc3cc(-c4ccncc4)ccn3)C2)cc1 [Example 191] |
| 6.55 | N#Cc1ccc(N[C@@H]2CCCC[C@H]2N[C@H]2CCCN(c3ccc(C(F)(F)F)cc3)C2)nc1 [Example 192] |
| 7.15 | N#Cc1cnc(N[C@@H]2CCCC[C@H]2N[C@H]2CCCN(c3ccc(C(F)(F)F)cc3)C2)s1 [Example 193] |
| 6.22 | N#Cc1ccnc(N[C@@H]2CCCC[C@H]2N[C@H]2CCCN(c3ccc(C(F)(F)F)cc3)C2)n1 [Example 194] |
| 7.32 | FC(F)(F)c1ccc(N2CCC[C@H](N[C@@H]3CCCC[C@H]3Nc3cc4ccccc4cn3)C2)cc1 [Example 195] |
| 6.09 | FC(F)(F)c1ccc(N2CCC[C@H](N[C@@H]3CCCC[C@H]3Nc3ncc(Cl)cn3)C2)cc1 [Example 196] |
| 7.92 | FC(F)(F)Oc1ccccc1-c1cnc(N[C@@H]2CCCC[C@H]2N[C@H]2CCCN(c3ccc(C(F)(F)F)cc3)C2)o1 [Example 197] |
| 7.17 | FC(F)(F)c1ccc(N2CCC[C@H](N[C@@H]3CCCC[C@H]3Nc3cc(-c4cc[nH]c4)ccn3)C2)cc1 [Example 198] |
